Patent publication EP3722296B1, “DIHYDRONAPHTHYRIDINES AND RELATED COMPOUNDS USEFUL AS KINASE INHIBITORS FOR THE TREATMENT OF PROLIFERATIVE DISEASES” (Deciphera Pharmaceuticals, LLC, priority 2012, dated 2013)

Tests used:
[1] = target: T1, c-KIT T670I kinase (Homo sapiens, UniProt P10721, T670I); experiment: c-KIT T670I kinase assay; type: biochemical; details: enzymatic assay
T1 construct: The construct contains residues T544-V976 of cKit; GST (N); TEV cleavage site (internal); purchased deCODE Biostructures
Method: (§1) In this assay, the oxidation of NADH (measured by decrease in absorbance at 340 nm) was continuously monitored spectrophotometrically. […] The inhibition reaction was started by mixing serial diluted test compound with the above reaction mixture. The absorption at 340 nm was monitored continuously for 5 hours at 30 °C on Synergy 2 plate reader (BioTech). […] The protein construct was prepared by deCODE Biostructures using procedures known in the art. The construct contains […] of cKit, an N-terminal tag, a GST-fusion sequence and a TEV cleavage site. This construct is identical to Seq ID no. 1 except for the T670I mutation. [formula] [formula]

[2] = target: c-KIT kinase (Homo sapiens, UniProt P10721); experiment: c-KIT kinase Assay; type: biochemical; design: cKIT residues T544-V976; GST (N); TEV cleavage site (internal); purchased deCODE Biostructures; details: enzymatic assay, ATP 200 µM; read-out: KIT (wt) IC50
Method: In this assay, the oxidation of NADH (measured by decrease in absorbance at 340 nm) was continuously monitored spectrophotometrically. […] The absorption at 340 nm was monitored continuously for 2 hours at 30 °C on Synergy 2 (BioTeK). The reaction rate was calculated using the 0 to 1 h time frame. Percent inhibition was obtained by comparison of reaction rate with that of a control (i.e. with no test compound). IC50 values were calculated from a series of percent inhibition values determined at a range of inhibitor concentrations using software routines as implemented in the GraphPad Prism software package. The protein construct was prepared by deCODE Biostructures using procedures known in the art. The construct contains […] of cKit, an N-terminal tag, a GST-fusion sequence and a TEV cleavage site. [formula]

[3] = target: T2, c-KIT V654A kinase (Homo sapiens, UniProt P10721, V654A); experiment: c-KIT V654A Kinase Assay; type: biochemical; details: enzymatic assay, ATP 200 µM
T2 construct: residues T544-V976 with N-terminal GST fusion; purchased deCODE Biostructures
Method: (§2) In this assay, the oxidation of NADH (measured by decrease in absorbance at 340 nm) was continuously monitored spectrophotometrically. […] The inhibition reaction was started by mixing serial diluted test compound with the above reaction mixture. The absorption at 340 nm was monitored continuously for 6 hours at 30 °C on Synergy 2 plate reader (BioTech).
(§3) The protein construct was prepared by deCODE Biostructures using procedures known in the art. The construct contains residues T544-V976 of cKit, an N-terminal tag, a GST-fusion sequence and a TEV cleavage site. This construct is identical to Seq ID no.

[4] = target: T3, c-KIT D816H kinase (Homo sapiens, UniProt P10721, D816H); experiment: c-KIT D816H Kinase Assay; type: biochemical; details: enzymatic assay, ATP 200 µM
T3 construct: The construct contains residues T544-V976 of cKit; GST (N); TEV cleavage site (internal); purchased deCODE Biostructures
Method: as §1, with “6” for “5”, “no.” for “no. 1 except for the T670I mutation. [formula] [formula]”

[5] = target: T4, c-KIT D816V kinase (Homo sapiens, UniProt P10721, D816V); experiment: c-KIT D816V kinase Assay; type: biochemical; details: enzymatic assay, ATP 200 uM
T4 construct: residues T544-V976 with N-terminal GST fusion; purchased deCODE Biostructures
Method: as §2, with “5” for “6”
as §3

[6] = test system: Phospho-KIT (Tyr719); experiment: GIST48 KIT Western Blot; type: cell-based; details: GIST48 cells, 4 hours, serum-free medium; read-out: pKIT suppression by western blot analysi GIST48
Method: GIST48, GIST430, and GIST882 cells were obtained from J. Fletcher (Brigham and Women's Hospital, Boston, MA). GIST T1 cells were obtained from B. Rubin (Cleveland Clinic, Cleveland, OH) and Professor Takahiro Taguchi (Kochi Medical School, Nankoku, Kochi, Japan). […] GIST430 cells were grown in Ham's F10 medium supplemented with 15% characterized fetal bovine serum (Invitrogen, Carlsbad, CA), 30 mg/L bovine pituitary extract (BD Biosciences, San Jose, CA), 0.5% Mito+ serum extender (BD Biosciences, San Jose, CA), 1 unit/mL penicillin G, 1 µg/ml streptomycin, and 0.29 mg/mL L-glutamine at 37 °C, 5%CO2, 95% humidity. GIST T1 cells were grown in DMEM medium supplemented with 10% characterized fetal bovine serum (Invitrogen, Carlsbad, CA), 1 unit/mL penicillin G, 1 µg/ml streptomycin, and 0.29 mg/mL L-glutamine at 37 °C, 5% CO2, and 95% humidity.
Two hundred fifty thousand cells were added per well in a 24-well tissue-culture treated plate. […] Medium was aspirated, cells were washed with PBS, and serum-free RPMI1640 medium was added. […] Cells were washed with PBS, then lysed. Cell lysates were separated by SDS-PAGE and transferred to PVDF. Phospho-KIT (Tyr719) was detected using an antibody from Cell Signaling Technology (Beverly, MA), ECL Plus detection reagent (GE Healthcare, Piscataway, NJ) and a Molecular Devices Storm 840 phosphorimager in fluorescence mode. Blots were stripped and probed for total KIT using an antibody from Santa Cruz Biotech (Santa Cruz, CA). IC50 values were calculated using Prism software (Graphpad, San Diego, CA).

[7] = test system: GIST T1 cells; experiment: GIST T1 Cell Proliferation Assay; type: cell-based; details: Homo sapiens, GISTT1, 72 h, 68 hours + 4 hours resazurin
Method: GIST48, GIST430, and GIST882 cells were obtained from J. Fletcher (Brigham and Women's Hospital, Boston, MA). GIST T1 cells were obtained from B. Rubin (Cleveland Clinic, Cleveland, OH) and Professor Takahiro Taguchi (Kochi Medical School, Nankoku, Kochi, Japan). Briefly, GIST48 and GIST 882 cells were grown in RPMI 1640 medium supplemented with 15% characterized fetal bovine serum (Invitrogen, Carlsbad, CA), 1 unit/mL penicillin G, 1 µg/ml streptomycin, and 0.29 mg/mL L-glutamine at 37 °C, 5% CO2, and 95% humidity. GIST430 cells were grown in Ham's F10 medium supplemented with 15% characterized fetal bovine serum (Invitrogen, Carlsbad, CA), 30 mg/L bovine pituitary extract (BD Biosciences, San Jose, CA), 0.5% Mito+ serum extender (BD Biosciences, San Jose, CA), 1 unit/mL penicillin G, 1 µg/ml streptomycin, and 0.29 mg/mL L-glutamine at 37 °C, 5%CO2, 95% humidity. GIST T1 cells were grown in DMEM medium supplemented with 10% characterized fetal bovine serum (Invitrogen, Carlsbad, CA), 1 unit/mL penicillin G, 1 µg/ml streptomycin, and 0.29 mg/mL L-glutamine at 37 °C, 5% CO2, and 95% humidity.
A serial dilution of test compound was dispensed into a 384-well black clear bottom plate (Corning, Corning, NY). One thousand two-hundred fifty cells were added per well in 50 µL complete growth medium. Plates were incubated for 68 hours at 37 °C, 5% CO2, 95% humidity. At the end of the incubation period 10 µL of a 440 µM solution of resazurin (Sigma, St. Louis, MO) in PBS was added to each well and incubated for an additional 4 hours at 37 °C, 5% CO2, 95% humidity. Plates were read on a Synergy2 reader (Biotek, Winooski, VT) using an excitation of 540 nm and an emission of 600 nm.

T2 sequence (P10721 544-976 V654A): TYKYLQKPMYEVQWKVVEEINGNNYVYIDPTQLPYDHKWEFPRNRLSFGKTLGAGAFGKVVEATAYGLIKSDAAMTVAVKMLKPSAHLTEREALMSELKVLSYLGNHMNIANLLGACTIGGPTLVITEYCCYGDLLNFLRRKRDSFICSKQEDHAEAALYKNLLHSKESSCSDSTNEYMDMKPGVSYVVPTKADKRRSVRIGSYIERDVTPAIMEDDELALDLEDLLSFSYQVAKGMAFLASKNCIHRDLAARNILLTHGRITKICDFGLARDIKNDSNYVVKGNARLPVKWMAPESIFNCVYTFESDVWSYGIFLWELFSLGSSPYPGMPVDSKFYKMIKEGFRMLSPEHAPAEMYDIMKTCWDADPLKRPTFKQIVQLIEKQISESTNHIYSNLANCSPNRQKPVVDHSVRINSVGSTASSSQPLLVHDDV
T1 sequence (P10721 544-976 T670I): as the sequence (P10721 544-976 V654A) above, with A111V, T127I counted along it
T4 sequence (P10721 544-976 D816V): as the sequence (P10721 544-976 V654A) above, with A111V, D273V counted along it
c-KIT kinase, sequence (P10721 544-976): as the sequence (P10721 544-976 V654A) above, with A111V counted along it
T3 sequence (P10721 544-976 D816H): as the sequence (P10721 544-976 V654A) above, with A111V, D273H counted along it

| IC50 [1] | IC50 [2] | IC50 [3] | IC50 [4] | IC50 [5] | IC50 [6] | Compound | IC50 [7] |
| --- | --- | --- | --- | --- | --- | --- | --- |
| 10 to 100 nM | < 10 nM | 10 to 100 nM | 10 to 100 nM | 10 to 100 nM |  | CCn1c(=O)c(-c2cc(NC(=O)Nc3cccc(C#N)c3)c(F)cc2Cl)cc2cnc(NC)cc21 [Example 91, 1-(4-chloro-5-(1-ethyl-7-(methylamino)-2-oxo-1,2-dihydro-1,6-naphthyridin-3-yl)-2-fluorophenyl)-3-(3-cyanophenyl)urea] |  |
| 10 to 100 nM | 10 to 100 nM | 10 to 100 nM | 10 to 100 nM | 10 to 100 nM | < 10 nM | CCn1c(=O)c(-c2cc(NC(=O)Nc3ccccc3)c(F)cc2C)cc2cnc(NC(=O)N3CCC3)cc21 [Example 110, N-(1-ethyl-3-(4-fluoro-2-methyl-5-(3-phenylureido)phenyl)-2-oxo-1,2-dihydro-1,6-naphthyridin-7-yl)azetidine-1-carboxamide] |  |
|  |  |  |  |  | 10 to 100 nM | Cc1cc(F)c(NC(=O)Nc2ccccc2)cc1-c1cc2cnc(NC(=O)N3CCC3)cc2n(C(C)C)c1=O [Example 109, N-(3-(4-fluoro-2-methyl-5-(3-phenylureido)phenyl)-1-isopropyl-2-oxo-1,2-dihydro-1,6-naphthyridin-7-yl)azetidine-1-carboxamide] |  |
|  |  |  |  |  |  | CC(=O)Nc1cc2c(cn1)cc(-c1cc(NC(=O)Nc3cccc(F)c3)c(F)cc1Cl)c(=O)n2C(C)C [Example 99, N-(3-(2-chloro-4-fluoro-5-(3-(3-fluorophenyl)ureido)phenyl)-1-isopropyl-2-oxo-1,2-dihydro-1,6-naphthyridin-7-yl)acetamide] | < 10 nM |
| 10 to 100 nM | 10 to 100 nM | 100 to 1000 nM | < 10 nM | 10 to 100 nM |  | CCn1c(=O)c(-c2cc(NC(=O)Nc3ccccc3)c(F)cc2C)cc2cnc(NC(=O)N3CC(N(C)C)C3)cc21 [Example 113, 3-(dimethylamino)-N-(1-ethyl-3-(4-fluoro-2-methyl-5-(3-phenylureido)phenyl)-2-oxo-1,2-dihydro-1,6-naphthyridin-7-yl)azetidine-1-carboxamide] |  |
| 10 to 100 nM | < 10 nM |  |  | 100 to 1000 nM |  | CCn1c(=O)c(-c2cc(NC(=O)Nc3ccc(F)c(CN4CCOCC4)c3)c(F)cc2Cl)cc2cnc(NC)cc21 [Example 95, 1-(4-chloro-5-(1-ethyl-7-(methylamino)-2-oxo-1,2-dihydro-1,6-naphthyridin-3-yl)-2-fluorophenyl)-3-(4-fluoro-3-(morpholinomethyl)phenyl)urea] | < 10 nM |
|  |  |  |  |  |  | CCn1c(=O)c(-c2cc(NC(=O)Nc3ccc(F)c(CN4CCOCC4)c3)c(F)cc2Cl)cc2cnc(NC=O)cc21 [Example 107, N-(3-(2-chloro-4-fluoro-5-(3-(4-fluoro-3-(morpholinomethyl)phenyl)ureido)phenyl)-1-ethyl-2-oxo-1,2-dihydro-1,6-naphthyridin-7-yl)formamide] | 10 to 100 nM |
|  |  |  |  |  |  | CCn1c(=O)c(-c2cc(NC(=O)Nc3ccc(F)c(CN4CCCC4)c3)c(F)cc2Cl)cc2cnc(NC)cc21 [Example 97, 1-(4-chloro-5-(1-ethyl-7-(methylamino)-2-oxo-1,2-dihydro-1,6-naphthyridin-3-yl)-2-fluorophenyl)-3-(4-fluoro-3-(pyrrolidin-1-ylmethyl)phenyl)urea] | < 10 nM |
| 100 to 1000 nM | < 10 nM | 10 to 100 nM | 10 to 100 nM | 10 to 100 nM |  | CCn1c(=O)c(-c2cc(NC(=O)Nc3ccccc3F)c(F)cc2Cl)cc2cnc(NCCOC)cc21 [Example 35, 1-(4-chloro-5-(1-ethyl-7-(2-methoxyethylamino)-2-oxo-1,2-dihydro-1,6-naphthyridin-3-yl)-2-fluorophenyl)-3-(2-fluorophenyl)urea] |  |
| 100 to 1000 nM | < 10 nM | 10 to 100 nM | 10 to 100 nM | 10 to 100 nM |  | CCn1c(=O)c(-c2cc(NC(=O)Nc3ccccc3)c(F)cc2C)cc2cnc(NCCOC)cc21 [Example 37, 1-(5-(1-ethyl-7-(2-methoxyethylamino)-2-oxo-1,2-dihydro-1,6-naphthyridin-3-yl)-2-fluoro-4-methylphenyl)-3-phenylurea] |  |
| 10 to 100 nM | < 10 nM | 10 to 100 nM | 10 to 100 nM | 10 to 100 nM |  | CCn1c(=O)c(-c2cc(NC(=O)Nc3ccc(F)cc3)c(F)cc2Cl)cc2cnc(NCCOC)cc21 [Example 34, 1-(4-chloro-5-(1-ethyl-7-(2-methoxyethylamino)-2-oxo-1,2-dihydro-1,6-naphthyridin-3-yl)-2-fluorophenyl)-3-(4-fluorophenyl)urea] |  |
